What was measured:
[1] = tested on: Citrullus vulgaris urease (CVU); assay: Inhibition of CVU urease activity after 1 h incubation with inhibitor (phenol red assay); format: biochemical; conditions: for IC50: CVU incubated 1 h at 37 °C with inhibitor, 2 mM urea, pH 6.8; for Plateau (% of Initial): residual activity at plateau from the fit, 1 h at 37 °C
Protocol: (§1) The specific ureolytic activity was assayed spectrophotometrically at 37 °C in a Fluostar Omega (BMG LABTECH Inc, Cary, NC, USA) spectrometer. The reaction was monitoring by the increase of ammonia concentration following the absorbance at 558 nm by The Phenol Red Assay, taking similar considerations as the one described elsewhere. The standard urease test consisted in 0.3 mL of reaction buffer: 0.5 mM MES, 0.016 mM phenol red, and 50 mM urea, at pH 6.8. All assays were initiated by the addition of the enzyme (≈0.6 ng/mL). Initial velocity rates were determined from the initial linear portion of the reaction course-times. Saturation kinetics experiments were performed under the same conditions, except that different concentrations of urea were used (0.5 to 50 mM), and data were fitted to Michaelis-Menten model (Equation (1)). All experiments presented were reproduced at least three times.
To evaluate the saturation of CVU with inhibitors, enzyme was incubated for one hour at 37 °C with different concentrations of inhibitors in the standard reaction mixture, the reactions were started by the addition of urea to a final concentration of 2 mM, followed by the measurement of the residual activity. Percentages of residual activity were plotted against inhibitor concentration. Since two types of behavior were observed, two different equations were used to fit the data. In one case, we observed a trend that produced a full loss of activity (Equation (3)), and in the other case a partial inhibition is observed, meaning that at enzyme saturation activity value is non-zero (Equation (4)).
Equation (3): Full-Inhibition Saturation Kinetics, (3) residual activity (%) = A0 IC50h/IC50h+[I]^h where h, is the Hill coefficient; IC50 is the apparent inhibition constant; [I], is the inhibitor concentration. Residual activity and A0 is the same as in Equation (2).
Equation (4): Partially-Inhibition Saturation Kinetics, (4) residual activity (%)= A0 IC50h/IC50h+[I]^h+plateau where parameters and variables are same as in Equation (3), with the difference that a plateau is included.
Inhibition of CVU by Aldrithiol (2,2′-dipyridyl disulphide, here in after called DPS for dipyridine sulfide), captopril ((S)-1-(3-Mercapto-2-methyl-1-oxopropyl)-L-proline), bithionol (2,2′-Sulfanediylbis(4,6-dichlorophenol)) and quercetin were performed in a similar manner as for inhibition experiments with DSF. These inhibitors were purchased from Sigma-Aldrich (Toluca, Mexico). Inhibition kinetics data were fitted to the indicated equation. The protection of the activity by a given inhibitor (called I2), at a concentration equal to the IC50 value, over the inhibition produced by DPS was monitored measuring changes in initial velocity and plotting the percentage of inhibition for each treatment and expressed as mean ± SEM. Student t test was used to estimate statistical significance. Measurements of variance were performed using a one-way ANOVA. Differences were considered significant when p was less than 0.05. All experiments were performed at least three times, and in all cases the SEM justifies the accuracy of the values, except in the case of inhibition kinetics of bithionol and quercetin in which SEM is higher than 10% of the estimated value.

[2] = tested on: Citrullus vulgaris urease (CVU); assay: Time courses of inactivation of CVU pre-incubated with DSF; format: biochemical; conditions: 37 °C
Protocol: as §1
To evaluate the time and concentration-dependence of the inhibition of urease activity, the initial rates of urea hydrolysis were measured in the standard reaction mixture in the presence of DSF (tetraethylthiuram disulphide), (C2H5)2N(C=S)S–S(S=C)N(C2H5)2, during different incubation periods. DSF was purchased from Sigma-Aldrich (Toluca, Mexico). In these experiments urease reactions were started by the addition of urea to a final concentration of 2 mM. The residual activity in percentage of the initial was plotted against the time of incubation and fitted to an exponential decay equation with a plateau (Equation (2)).
Equation (2): Enzyme inactivation, (2) residual activity = (A0−plateau)(e^−kt)+plateau, where the residual activity is the observed activity upon the inhibition; A0, is the activity observed in the absence of the inhibitor; the plateau, is the value of Y minimum; k, is the observed one phase kinetic constant, and t is the time of incubation. Activity was transformed to percentage, where activity in the absence of DSF is 100%.

[3] = molecular target: Citrullus vulgaris urease (CVU); assay: Binding equilibrium by intrinsic fluorescence quenching; conditions: 1 h after addition, 37 °C, read-out: DSF dissociation constant (Kd)
Protocol: The binding of DSF was monitored after apparent equilibrium by measuring the intrinsic tryptophan fluorescence intensity changes at 37 °C using a spectrometer (Fluostar Omega, BMG). CVU was excited at 290 nm, and fluorescence intensity was recorded at 340 nm after an hour of incubation at 37 °C in the absence or presence of different concentrations of DSF. In order to discard solvent fluorescent changes, a control experiment was performed in which the different volumes of solvent (same as in the titration volumes used in ligand additions) were added to urease. Fluorescence intensity changes were plotted against the DSF concentrations and fitted to […]. Equation (6): Fluorescence binding saturation, (6) ΔIF = Bmax [DSF]/Kd+[DSF] where ΔIF, is the change in fluorescence intensity at 340 nm; Bmax, is the maximum ΔIF and corresponds to the maximum binding; [DSF], is the disulfiram concentration and Kd, is the dissociation constant.

[4] = tested on: Citrullus vulgaris urease (CVU); assay: Inhibition pattern: urea saturation kinetics of CVU at fixed/variable DSF concentrations; format: biochemical
Protocol: as §1, with “three times. For the inhibition pattern urea saturation kinetics experiments were performed at fixed/variable concentrations of DSF and data were globally fitted to Equation (5).” for “three times.”

| SMILES | IC50 [1] | Plateau (% of Initial) [1] | apparent half-life time of inactivation ([2]; 50 µM DSF) | kobs of inactivation ([2]; 50 µM DSF) | plateau, % of the initial velocity ([2]; 50 µM DSF) | apparent half-life time of inactivation ([2]; 80 µM DSF) | kobs of inactivation ([2]; 80 µM DSF) | plateau, % of the initial velocity ([2]; 80 µM DSF) | Kd [3] | Inhibition mechanism ([4]; Lineweaver–Burk plots of the inhibition pattern) | Ki ([4]; global fit to non-competitive inhibition, Equation (5), read-out: Inhibition constant (Ki)) |
| --- | --- | --- | --- | --- | --- | --- | --- | --- | --- | --- | --- |
| CC(CS)C(=O)N1CCC[C@H]1C(=O)O (stereo partly drawn) [Captopril, (S)-1-(3-Mercapto-2-methyl-1-oxopropyl)-L-proline] | 524 ± 39.6 µM | 0.00 % of Initial | – | – | – | – | – | – | – | – | – |
| O=c1c(O)c(-c2ccc(O)c(O)c2)oc2cc(O)cc(O)c12 [Quercetin, quercetin] | 155 ± 10.2 µM | 58.86 ± 1.52 % of Initial | – | – | – | – | – | – | – | – | – |
| Oc1c(Cl)cc(Cl)cc1Sc1cc(Cl)cc(Cl)c1O [Bithionol, 2,2′-Sulfanediylbis(4,6-dichlorophenol)] | 376 ± 120 µM | 34.53 ± 18.23 % of Initial | – | – | – | – | – | – | – | – | – |
| CCN(CC)C(=S)SSC(=S)N(CC)CC [DSF, tetraethylthiuram disulphide] | – | 0.00 % of Initial | 13.80 min | 0.050 ± 0.007 min⁻¹ | 63.60% ± 1.40 | 7.50 min | 0.092 ± 0.024 min⁻¹ | 53.48% ± 3.05 | 54.9 ± 3.9 µM | non-competitive inhibition mechanism | 67.6 ± 7 µM |
